Measured values from PubChem BioAssay (NCI).
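A five-concentration, 48-hour dose response in 96-well plates underlies each endpoint, interpolated linearly between surrounding concentrations. TGI: concentration producing complete growth inhibition.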

Key:
Assay in all cases: NCI tumour cell line growth inhibition, 48 h
EKVX NSCLC = tested on: EKVX NSCLC
HCC-2998 colon = tested on: HCC-2998 colon
DLD-1 colon = tested on: DLD-1 colon
DMS 273 small cell lung = tested on: DMS 273 small cell lung
HOP-18 NSCLC = tested on: HOP-18 NSCLC
KM20L2 colon = tested on: KM20L2 colon
M19-MEL melanoma = tested on: M19-MEL melanoma
P388 leukemia = tested on: P388 leukemia
P388/ADR leukemia = tested on: P388/ADR leukemia
SN12K1 renal = tested on: SN12K1 renal
SNB-78 CNS = tested on: SNB-78 CNS
XF 498 CNS = tested on: XF 498 CNS
DMS 114 small cell lung = tested on: DMS 114 small cell lung
LXFL 529 NSCLC = tested on: LXFL 529 NSCLC
RXF-631 renal = tested on: RXF-631 renal

Row | SMILES | TGI (EKVX NSCLC) [µM] | TGI (HCC-2998 colon) [µM] | further results
1 | CCOC(=O)/C=C(/C(=O)OCC)n1ccc(=O)n(Cc2cn(COCCOC(C)=O)nn2)c1=O | 30.6 | 36.2 | 
2 | CCOC(=O)c1nc2ccc(C(F)(F)F)cc2nc1NCc1cc(OC)c(OC)c(OC)c1 | > 100 | > 100 | 
3 | NC(N)=NCCC[C@H](N)C(=O)NCC(=O)N[C@@H](CC(=O)O)c1ncc(NC(=O)C(F)(F)F)o1 | > 25 | > 25 | 
4 | Cc1ccc(SCC(CF)OC(C)n2cnc3c(=O)[nH]c(N)nc32)cc1 (stereo unspecified) |  | > 100 | 
5 | CCN(CC)C(=O)Cn1c(C)cc2ccccc21 | > 100 | > 100 | 
6 | COc1ccc2ccccc2c1/C=C/C(=O)c1ccccc1 | 12.1 | 3.07 | 
7 | O=C(c1ccc(N=Cc2ccccc2O)cc1)c1ccc(N=Cc2ccccc2O)cc1 | > 100 | > 100 | 
8 | Oc1ccc(-c2nc(-c3cccnc3)c(-c3ccc(Cl)cc3)[nH]2)cc1 | 27.4 | 33.1 | 
9 | CCOc1cn(C2CC(O)C(CO)O2)c(=O)[nH]c1=O (stereo unspecified) | > 100 | > 100 | 
10 | COC1=C(OC)C(=O)C(Cc2c(C)nc3sc(C)cn23)=C(C)C1=O | 35.1 | 92.9 | 
11 | COC(CNC(=O)C(C)NC(=O)CCc1ccccc1)OC (stereo unspecified) | > 100 |  | 
12 | O=C1/C(=C/c2ccc([N+](=O)[O-])cc2)C(=O)N(c2ccccc2)C1c1ccccc1 (stereo unspecified) | > 10 | > 10 | 
13 | CC1=NNC(N)=N/C1=C\C(Sc1ccc(Cl)cc1)c1ccc([N+](=O)[O-])cc1 (stereo unspecified) | > 100 | > 100 | 
14 | CC1NC(=O)CC(c2ccccc2)N(N=O)C1c1ccccc1 (stereo unspecified) | > 100 | > 100 | TGI (DLD-1 colon): > 100 µM; TGI (DMS 273 small cell lung): > 75.1 µM; TGI (HOP-18 NSCLC): > 100 µM; TGI (KM20L2 colon): 40 µM; TGI (M19-MEL melanoma): > 100 µM; TGI (P388 leukemia): > 57.8 µM; TGI (P388/ADR leukemia): > 60.2 µM; TGI (SN12K1 renal): 48.3 µM; TGI (SNB-78 CNS): > 91.8 µM; TGI (XF 498 CNS): 75.3 µM
15 | O=Cc1ccc(OCc2cccc(COc3ccc(/C=N\Nc4ccc([N+](=O)[O-])cc4[N+](=O)[O-])cc3)n2)cc1 | > 100 | > 100 | 
16 | O=C(NI1OC(=O)c2ccccc21)c1ccc(Cl)cc1 | > 100 | > 100 | 
17 | CC12C(=O)CC(CC1=O)C2(C)C | > 100 |  | 
18 | CSc1ncnc2c1ncn2C1CC(Oc2ccc(C)cc2)C(COc2ccc(C)cc2)O1 (stereo unspecified) | > 100 | > 100 | 
19 | CCOC(=O)CNc1c(OCc2ccccc2)c(=O)c1=O | > 100 | > 100 | 
20 | CC(=O)OC(/C=C/c1ccccc1)=C(OC(C)C)/C1=C(\c2ccccc2)SCCCSC1=O | > 100 | > 100 | 
21 | Oc1c(CN2CCOCC2)ccc2cccnc12 | > 10 | > 10 | 
22 | N=C(N)c1ccc(C(NC(=O)CNS(=O)(=O)c2ccc3ccccc3c2)P(=O)(Oc2ccccc2)Oc2ccccc2)cc1 (stereo unspecified) |  | > 100 | 
23 | Cc1nc(-c2cc3cc([N+](=O)[O-])ccc3oc2=O)cs1 | > 100 | > 100 | 
24 | C=CCCN1CCc2c([nH]c3ccccc23)C1C(=O)O (stereo unspecified) | > 100 | > 100 | TGI (DLD-1 colon): > 100 µM; TGI (DMS 114 small cell lung): > 100 µM; TGI (DMS 273 small cell lung): > 100 µM; TGI (KM20L2 colon): > 100 µM; TGI (LXFL 529 NSCLC): > 100 µM; TGI (M19-MEL melanoma): > 100 µM; TGI (RXF-631 renal): > 100 µM; TGI (SNB-78 CNS): > 100 µM; TGI (XF 498 CNS): > 100 µM
25 | C(=Nc1ccc(-c2nc3ccccc3[nH]2)cc1)c1cccs1 | > 100 |  | 
26 | Cc1cc(S(=O)(=O)N=C2N(Cc3ccccc3)CCN2Cc2ccccc2)c(S)cc1Cl | > 100 | > 100 | 
27 | CC(C)(C)OC(=O)NC(Cc1ccc(OCc2ccccc2)cn1)C(=O)N1CCCCC1 (stereo unspecified) | > 100 | > 100 | 
28 | CCOC(=O)C(=Cc1[nH]c2ccccc2c1-c1c[nH]c2ccccc12)C(=O)OCC | 31.8 | 25 | 
29 | O=C1CSC(c2cccc(Oc3ccccc3)c2)N1c1ccc(Cl)cc1 (stereo unspecified) | 78.7 |  | 
30 | N#CC(NC12CC3CC(CC(C3)C1)C2)c1ccccc1C(F)(F)F (stereo unspecified) | > 100 | > 100 | TGI (DLD-1 colon): > 100 µM; TGI (DMS 114 small cell lung): > 100 µM; TGI (DMS 273 small cell lung): > 100 µM; TGI (HOP-18 NSCLC): > 100 µM; TGI (KM20L2 colon): > 100 µM; TGI (LXFL 529 NSCLC): > 100 µM; TGI (M19-MEL melanoma): > 100 µM; TGI (XF 498 CNS): > 100 µM
